# Results from BindingDB's records for doi:10.7270/Q2KK9971 (Nmmlsc, 2009).
# Target: T1, GTPase KRas [1-37] (Homo sapiens, UniProt G3V5T7)
# T1 construct: 1-37
# Experiment: inhibition of fluorescent GTP binding to wild-type Ras – biochemical, pyrazoline analogs, multiplex bead flow cytometry, SAR follow-up (AID 2047)
# Settings: not given
# T1 sequence (G3V5T7 whole entry): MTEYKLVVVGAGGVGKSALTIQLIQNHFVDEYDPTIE
row,Compound,EC50 [µM]
1,"COc1ccc(C2CC(c3ccc(F)cc3)=NN2c2cc(Cl)ccc2Cl)cc1 (centres undefined) [2-(2,5-dichlorophenyl)-5-(4-fluorophenyl)-3-(4-methoxyphenyl)-3,4-dihydropyrazole]",> 30
2,COc1ccc(C2CC(c3ccc(Br)cc3)=NN2c2ccc(S(N)(=O)=O)cc2)cc1 (centres undefined) [UNM-0000306138],> 30
3,COc1ccc(C2CC(c3ccc(N(C)C)cc3)=NN2c2ccc(S(N)(=O)=O)cc2)cc1 (centres undefined) [KUC103422N],> 30
4,O=[N+]([O-])c1ccc([N+]2=N[C-](c3ccccc3)CC2c2ccc(O)cc2)cc1 (centres undefined) [UNM-0000305838],> 30
5,Cc1ccccc1[N+]1=N[C-](c2ccccc2)CC1c1cccc([N+](=O)[O-])c1 (centres undefined) [UNM-0000305854],> 30
6,O=S(=O)(O)c1ccc(N2N=C(c3ccccc3)CC2c2ccccc2)cc1 (centres undefined) [UNM-0000305834],> 30
7,O=S(=O)(c1ccc(N2N=C(c3ccccc3)CC2c2ccccc2)cc1)C(F)F (centres undefined),> 30
8,COc1ccc(C2CC(c3ccncc3)=NN2c2ccc(S(N)(=O)=O)cc2)cc1 (centres undefined),> 30
9,Cc1ccccc1C1CC(c2ccccc2)=NN1c1ccc(S(N)(=O)=O)cc1 (centres undefined) [UNM-0000306148],> 30
10,COc1ccc(C2CC(c3ccccc3)=NN2c2ccc(C(=O)O)cc2)cc1 (centres undefined) [UNM-0000306085],> 30
11,"O=S(=O)(c1ccc(N2N=C(c3ccc(Br)cc3)CC2c2ccccc2)cc1)C(F)F (centres undefined) [5-(4-bromophenyl)-2-[4-(difluoromethylsulfonyl)phenyl]-3-phenyl-3,4-dihydropyrazole]",> 30
12,"COc1ccc(C2C[C-](c3ccccc3)N=[N+]2c2ccc([N+](=O)[O-])cc2)cc1 (centres undefined) [3-(4-methoxyphenyl)-2-(4-nitrophenyl)-5-phenyl-3,4-dihydropyrazole]",> 30
13,"Fc1ccccc1C1CC(c2ccc(Br)cc2)=NN1c1ccc(Br)cc1 (centres undefined) [2,5-bis(4-bromophenyl)-3-(2-fluorophenyl)-3,4-dihydropyrazole]",> 30
14,"FC(F)(F)c1ccccc1C1CC(c2ccc(Br)cc2)=NN1c1ccccc1 (centres undefined) [5-(4-bromophenyl)-2-phenyl-3-[2-(trifluoromethyl)phenyl]-3,4-dihydropyrazole]",> 30
15,COc1ccc(C2=NN(c3ccccc3)C(c3ccc(Cl)cc3)C2)cc1 (centres undefined) [UNM-0000305833],> 30
16,"COc1ccc(C2CC(c3ccc(C(F)(F)F)cc3)=NN2c2ccc(S(N)(=O)=O)cc2)cc1 (centres undefined) [4-[3-(4-methoxyphenyl)-5-[4-(trifluoromethyl)phenyl]-3,4-dihydropyrazol-2-yl]benzenesulfonamide]",> 30
17,COc1ccc(C2CC(c3ccccc3F)=NN2c2ccc(S(N)(=O)=O)cc2)cc1 (centres undefined) [UNM-0000306110],> 30
18,"COc1ccc(C2=NN(c3cccc(F)c3)C(c3ccc(OC)cc3)C2)cc1 (centres undefined) [2-(3-fluorophenyl)-3,5-bis(4-methoxyphenyl)-3,4-dihydropyrazole]",> 30

# Same assay, conditions: inactive by the depositor's call
row,Compound,EC50 [µM]
1,"COc1ccc(C2CC(c3ccc(F)cc3)=NN2c2ccc(S(N)(=O)=O)cc2)cc1 (centres undefined) [4-[5-(4-fluorophenyl)-3-(4-methoxyphenyl)-3,4-dihydropyrazol-2-yl]benzenesulfonamide]",0.028
